The text below walks through data of patent US5686458A, “Quinazoline deriviates for treating peptic ulcer” (Yuhan Corporation, priority 1992, dated 1997).

For orientation: IC50 means the concentration that gives 50% inhibition.

Where a name gives a salt, the structure may show the parent alone.

In assay [1] the target is T1, Proton Pump (H^+ /K^+ ATPase) (Oryctolagus cuniculus, UniProt P27112).
T1 construct: The microsomes thus obtained were used as an enzyme source of the in vitro enzyme reaction study of proton pump; from tissue; host or cells: rabbit stomach, mucosal scrapings, microsomes (180,000 g pellet)
T1 sequence (P27112 whole entry): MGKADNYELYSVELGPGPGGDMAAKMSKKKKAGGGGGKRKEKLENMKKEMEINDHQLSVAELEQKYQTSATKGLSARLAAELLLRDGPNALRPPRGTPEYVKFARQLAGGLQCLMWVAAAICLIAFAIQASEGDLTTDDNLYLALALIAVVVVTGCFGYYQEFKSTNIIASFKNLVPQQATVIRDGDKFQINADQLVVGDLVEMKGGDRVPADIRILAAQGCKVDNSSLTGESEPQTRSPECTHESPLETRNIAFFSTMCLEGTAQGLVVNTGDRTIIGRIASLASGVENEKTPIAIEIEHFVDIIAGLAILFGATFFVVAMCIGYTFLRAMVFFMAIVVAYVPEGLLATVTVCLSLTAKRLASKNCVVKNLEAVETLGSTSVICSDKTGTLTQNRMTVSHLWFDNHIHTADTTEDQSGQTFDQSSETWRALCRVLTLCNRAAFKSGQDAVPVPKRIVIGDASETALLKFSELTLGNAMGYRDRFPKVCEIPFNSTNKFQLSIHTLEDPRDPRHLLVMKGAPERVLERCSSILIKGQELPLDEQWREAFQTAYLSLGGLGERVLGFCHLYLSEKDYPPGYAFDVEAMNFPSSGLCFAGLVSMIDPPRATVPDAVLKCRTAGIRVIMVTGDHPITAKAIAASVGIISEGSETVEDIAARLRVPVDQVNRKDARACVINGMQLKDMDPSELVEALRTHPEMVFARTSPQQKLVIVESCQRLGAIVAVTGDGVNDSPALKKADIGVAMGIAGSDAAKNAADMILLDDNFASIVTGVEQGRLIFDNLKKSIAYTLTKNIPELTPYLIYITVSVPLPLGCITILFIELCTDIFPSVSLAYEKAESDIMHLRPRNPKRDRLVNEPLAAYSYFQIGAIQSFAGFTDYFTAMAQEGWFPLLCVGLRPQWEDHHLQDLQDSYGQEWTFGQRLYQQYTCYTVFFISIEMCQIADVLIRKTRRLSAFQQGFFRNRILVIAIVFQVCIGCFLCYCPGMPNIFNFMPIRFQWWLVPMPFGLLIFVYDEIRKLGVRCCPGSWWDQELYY
T1 sequence (P18597 whole entry partner): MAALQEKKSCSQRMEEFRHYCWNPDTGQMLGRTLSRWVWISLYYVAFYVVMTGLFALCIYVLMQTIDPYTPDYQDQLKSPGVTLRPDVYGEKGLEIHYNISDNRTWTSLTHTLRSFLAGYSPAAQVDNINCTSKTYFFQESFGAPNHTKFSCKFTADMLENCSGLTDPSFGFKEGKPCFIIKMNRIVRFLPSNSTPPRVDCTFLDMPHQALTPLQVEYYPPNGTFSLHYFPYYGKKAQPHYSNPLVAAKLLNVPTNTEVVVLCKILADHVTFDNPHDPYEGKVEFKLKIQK
Briefly: Inhibition of Proton Pump (H+/K+ ATPase) Activity, in vitro enzyme reaction (Experiment 1). In kind it is biochemical, New Zealand white rabbit. The conditions noted are these: for Effect ratio: IC50 of Omeprazole / IC50 of test compound; for IC50: K+-stimulated H+/K+ ATPase activity, rabbit gastric microsomes, pH 7.2, 37° C., 15 min prereaction, 30 min reaction, read-out: IC50 of test compound, inhibition (50%) of the proton pump activity. As to the method:
A New Zealand white rabbit was killed by blowing its head and the stomach was taken out. The contents of the stomach were removed and the stomach walls were washed with was saline. The inner wall of the stomach was scratched out with a slide glass and the cells thus obtained were homogenized in 0.25M sucrose buffer by means of a Teflon-glass homogenizer. The homogenous solution was centrifuged at 10,000 g for 10 minutes and the supernatant was further centrifuged at 20,000 g for 20 minutes. The supernatant thus obtained was centrifuged at an ultra-high speed of 180,000 g for 1 hour. The pellets precipitated were collected by discarding the supernatant and suspended in 50 mM Tris-HCl buffer having pH 7.2. The suspension was dialyzed twice with the same buffer(of 1,000 times volume) for 3 hours and stored into liquid nitrogen.
The above centrifugation and dialysis were carried out at 4° C. The microsomes thus obtained were used as an enzyme source of the in vitro enzyme reaction study of proton pump.
The inhibitory effects of proton pump activity by the compounds of the present invention were measured by the in vitro enzyme reaction study. The proton pump activity stimulated by Mg^++ was used as a negative comparative group, and the activity stimulated by Mg^++ and K^+ was used as a positive comparative group. The comparative compound was omeprazole.
Test tubes were divided into 4 groups: Group 1 as negative comparative group(n=3), Group 2 as positive comparative group(n=3), Group 3(n=5) to be administered with the compound of the present invention and Group 4(n=5) to be administered with the comparative compound. The inhibitory effects of proton pump activity of Groups 3 and 4 were measured by employing the compound prepared in Example 34 and omeprazole, respectively, each of which was dissolved in dimethylsulfoxide at 5 different concentrations.
To each of Groups 1, 2, 3 and 4, were added 0.1 ml of magnesium chloride(40 mM) dissolved in 50 mM Tris-HCl buffer (pH 7.2) and […] of the enzyme source prepared in Experiment 1-1. Then, 0.1 ml of potassium chloride(500 mM) and 0.1 ml of ammonium chloride(100 mM) dissolved in 50 mM Tris-HCl buffer(pH 7.2) were added to all groups except for Group 1.
0.1 ml of dimethylsulfoxide was added to each of Groups 1 and 2; and to Group 3 was added 0.01 ml of the solution in which the compound prepared in Example 34 was dissolved in dimethylsulfoxide at 5 different concentrations. To Group 4, 0.01 ml of the solution prepared by dissolving omprazole in dimethylsulfoxide at 5 different concentrations(37.6, 21.4, 12.2, 7.0 and 4.0 μM) was added. 50 mM Tris-HCl buffer was added thereto so as to make the total volume 0.4 ml.
Thereafter, the test tubes of each Group were placed at 37° C. for 15 minutes for the prereaction. 0.1 ml of ATP solution(33.3 mM), which was prepared by adding Tris-ATP 50 mM to Tris-HCl buffer having pH 7.2, was added until the reaction volume became 0.5 ml. The final concentrations of MgCl2, KCl, NH4 Cl, ATP, enzyme and Tris-HCl were 8 mM, 100 mM, 20 mM, 6.7 mM, 100μg/ml and 50 mM, respectively. After the reaction was carried out at 37° C. for 30 minutes, 25% cold trichloroacetic acid was added to terminate the enzyme reaction. The released inorganic phosphate was measured by an automatic analyzer(SBA 300, Gilford).
The difference between Group 1 and Group 2 represents the proton pump activity activated by K^+ only. The inhibition percentages of Groups 3 and 4 were calculated from Litchfield-wilcoxon equation[see J. Pharmacol. Exptl. Ther. 96, 99(1949)]. The concentrations of the test compounds which inhibit 50% of the proton pump activity are represented as IC50 in Table 1.

For the next assay, the system named is gastric secretion. Kind of assay: Inhibition of Gastric Secretion, pylorus-ligated rats (Experiment 2). In kind it is in vivo, Sprague-Dawley rats. As to the method: In accordance with the method disclosed in Shay, H., et al., Gastroenterology 5, 43-61(1945), Experiment 2 was carried out.
Sprague-Dawley rats having a body weight of 170±10 g were divided into 3 groups(n=5) and deprived of food for 24 hours before the experiment with free access to water. Under ether anesthesia, the abdomen was incised, and the pylorus was ligated. As a comparative group, Group 1 was administered intraduodenally in a volume of 0.5 ml/200 g of 30% aqueous polyethylene glycol 400 solution. Groups 2 and 3 were administered intraduodenally with the compound of Example 34 and omeprazole, respectively, each of which was suspended in 30% aqueous polyethylene glycol 400 solution at a concentration of 20 mg/kg. After closing the abdominal cavity, the rats were placed for 5 hours and then killed by cervical dislocation. The stomach was extracted to obtain gastric juice.
The gastric juice was centrifuged at 1,000 g to remove precipitates. The amount and acidity of the gastric juice were measured. Relative volumes, relative acid concentrations and relative acid outputs of the test compounds were calculated from equations(I), (II) and (III) and the results are shown in Table 2.
(I) = the average amount of gastric juice of Group 1 - the
average amount of gastric juice of Group 2)/(the average
amount of gastric juice of Group 1 - the average amount
of gastric juice of Group 3)
Relative acid concentration
(II) = (the average acidity of Group 1 - the average
acidity of Group 2)/(the average acidity of Group 1 - the average
(III) = (the total amount of acid output of Group 1 - the
total amount of acid output of Group 2)/(the total amount of acid
output of Group 1 - the total amount of acid output of Group

Where [2] appears, read: relative to omeprazole (equation III), 20 mg/kg intraduodenally, pylorus-ligated rats, 5 hours.

For `CCC1c2ccccc2CCN1c1nc(Nc2ccc(F)cc2)nc2c(OC)cccc12.Cl` (stereo not drawn) [Example 45, 8-Methoxy-2-(4-Fluorophenyl-Amino)-4-(1-Ethyl-1,2,3,4-Tetrahydroisoquinoline-2-Yl) Quinazoline Hydrochloride], in assay [1], the Effect ratio came to 0.46 and the IC50 was found to be 8.9 µM. In addition, the “Relative Acid Output” value in the assay with gastric secretion (intraduodenal, 20 mg/kg, 5 h) is -0.06.
As for `CCC1c2ccccc2CCN1c1nc(Nc2ccc(F)cc2C)nc2c(OC)cccc12.Cl` (stereo not drawn) [Example 46, 8-Methoxy-2-(2-Methyl-4-Fluoro-Phenylamino)-4-(1-Ethyl-1,2,3,4-Tetrahydroisoquinoline-2-Yl)Quinazoline Hydrochloride], in assay [1], the Effect ratio worked out at 0.68 and the IC50 was approximately 6 µM. In the assay on gastric secretion (setting [2]), the “Relative Acid Output” value is reported as 0.11.
With `COc1cccc2c(N3CCc4ccccc4C3C3CC3)nc(Nc3ccc(F)cc3C)nc12.Cl` (stereo not drawn) [Example 47, 2-(4-Fluoro-2-Methylphenyl-Amino)-8-Methoxy-4-(1-cyclopropyl-1,2,3,4-Tetrahydroisoquinoline-2-Yl)Quinazoline Hydrochloride], in assay [1], the Effect ratio was found to be 0.49 and the 50% inhibitory concentration (IC50) was approximately 25 µM. The “Relative Acid Output” value in the assay on gastric secretion (setting [2]) was 0.33.
For `COc1cccc2c(N3Cc4ccccc4CC3C)nc(Nc3ccc(F)cc3)nc12.Cl` (stereo not drawn) [Example 48, 2-(4-Fluorophenylamino)-8-Methoxy-4-(3-Methyl-1,2,3,4-Tetrahydroisoquinoline-2-Yl) Quinazoline Hydrochloride], in that order: ~ 0.25, approximately 25 µM and 0.76.
For `COc1cccc2c(N3Cc4ccccc4CC3C)nc(Nc3ccc(F)cc3C)nc12.Cl` (stereo not drawn) [Example 49, 2-(4-Fluoro-2-Methylphenyl-Amino)-8-Methoxy-4-(3-Methyl-1,2,3,4-Tetrahydroisoquinoline-2-Yl)Quinazoline Hydrochloride], in that order: more than 0.25, more than 25 µM and 0.42.
On to `COc1cccc2c(N3CCc4ccccc4C3(C)C)nc(Nc3ccc(F)cc3)nc12.Cl` [Example 50, 2-(4-Fluorophenylamino)-8-Methoxy-4-(1,1-Dimethyl-1,2,3,4-Tetrahydroisoquinoline-2-Yl)Quinazoline Hydrochloride], for which, in assay [1], the Effect ratio was determined as 1.22 and the IC50 was determined as 6.05 µM. Moreover, the “Relative Acid Output” value with gastric secretion (setting [2]) turned out to be 0.82.
For the compound `COc1cccc2c(N3CCc4ccccc4C3(C)C)nc(Nc3ccc(F)cc3C)nc12` [Example 51, 2-(4-Fluoro-2-Methylphenyl-1-Amino)-8-Methoxy-4-(1,1-Dimethyl-1,2,3,4-Tetrahydroisoquinoline-2-Yl)Quinazoline Hydrochloride], in assay [1], the Effect ratio stood at 1.21 and the half-maximal inhibitory concentration (IC50) is 6.12 µM. For the same compound, the “Relative Acid Output” value in the assay on gastric secretion (setting [2]) is recorded as 0.82.
Take `COc1cccc2c(N3CCc4cccc(C)c4C3C)nc(Nc3ccc(F)cc3)nc12.Cl` (stereo not drawn) [Example 52, 2-(4-Fluorophenylamino)-8-Methoxy-4-(1,8-Dimethyl-1,2,3,4-Tetrahydroisoquinoline-2-Yl)Quinazoline Hydrochloride]: in assay [1], the Effect ratio was 1.26 and the IC50 came out at 7.5 µM. For the same compound, the “Relative Acid Output” value with gastric secretion (setting [2]) came out at 0.79.
In the case of `COc1cccc2c(N3CCc4cccc(C)c4C3C)nc(Nc3ccc(F)cc3C)nc12.Cl` (stereo not drawn) [Example 53, 2-(4-Fluoro-2-Methylphenyl-Amino)-8-Methoxy-4-(1,8-dimethyl-1,2,3,4-Tetrahydroisoquinoline-2-Yl)Quinazoline Hydrochloride], in assay [1], the Effect ratio is on record as 4.75 and the half-inhibitory concentration (IC50) amounted to 2 µM. In addition, the “Relative Acid Output” value in the assay with gastric secretion (setting [2]) is 0.92.
Take `COc1cccc2c(N3CCc4cc(C)ccc4C3C)nc(Nc3ccc(F)cc3)nc12.Cl` (stereo not drawn) [Example 54, 2-(4-Fluorophenylamino)-8-Methoxy-4-(1,6-Dimethyl-1,2,3,4-Tetrahydroisoquinoline-2-Yl)Quinazoline Hydrochloride]: in assay [1], the Effect ratio is given as ~ 0.64 and the IC50 was approximately 12.5 µM. Besides, in the assay on gastric secretion (setting [2]), the “Relative Acid Output” value was 0.82.
As for `COc1cccc2c(N3CCc4cc(C)ccc4C3C)nc(Nc3ccc(F)cc3C)nc12.Cl` (stereo not drawn) [Example 55, 2-(4-Fluoro-2-Methylphenyl-Amino)-8-Methoxy-4-(1,6-Dimethyl-1,2,3,4-Tetrahydroisoquinoline-2-Yl)Quinazoline Hydrochloride], in assay [1], the Effect ratio is listed as ~ 0.80 and the concentration for half-maximal inhibition (IC50) was approximately 10 µM. Also, in the assay with gastric secretion (setting [2]), the “Relative Acid Output” value was 0.50.
`COc1cccc2c(N3CC(C)c4ccccc4C3C)nc(Nc3ccc(F)cc3)nc12.Cl` (stereo not drawn) [Example 56, 2-(4-Fluorophenylamino)-8-Methoxy-4-(1,4-Dimethyl-1,2,3,4-Tetrahydroisoquinoline-2-Yl)Quinazoline Hydrochloride]: in assay [1], the Effect ratio was less than 0.60 and the IC50 is more than 12.5 µM. Further, the “Relative Acid Output” value in the assay on gastric secretion (setting [2]) amounted to 0.85.
For `COc1cccc2c(N3CC(C)c4ccccc4C3C)nc(Nc3ccc(F)cc3C)nc12.Cl` (stereo not drawn) [Example 57, 2-(4-fluoro-2-Methylphenyl-Amino)-8-Methoxy-4-(1,4-Dimethyl-1,2,3,4-Tetrahydroisoquinoline-2-Yl) Quinazoline Hydrochloride], in that order: 1.04, 7.18 µM and 0.67.
Take `COc1cccc2c(N3CCc4cccc5c4C3CC5)nc(Nc3ccc(F)cc3)nc12.Cl` (stereo not drawn) [Example 58, 8-Methoxy-2-(4-Fluorophenyl-Amino)-4-(1,8-Ethano-1,2,3,4-Tetrahydroisoquinoline-2-Yl)Quinazoline Hydrochloride]: in assay [1], the Effect ratio worked out at 0.65 and the IC50 was found to be 13.6 µM. Further, in the assay on gastric secretion (setting [2]), the “Relative Acid Output” value came out at 0.94.
As for `COc1cccc2c(N3CCc4cccc5c4C3CC5)nc(Nc3ccc(F)cc3C)nc12.Cl` (stereo not drawn) [Example 59, 8-Methoxy-2-(4-Fluoro-2-Methyl-Phenylamino)-4-(1,8-Ethano-1,2,3,4-Tetrahydroisoquinoline-2-Yl)Quinazoline Hydrochloride], in assay [1], the Effect ratio worked out at 1.77 and the IC50 amounted to 4.8 µM. Also, the “Relative Acid Output” value in the assay on gastric secretion (setting [2]) worked out at 0.83.
